This is an account of results in US20090012087A1, “New Aza-Bicyclohexane Compounds Useful As Inhibitors Of Thrombin” (ASTRAZENECA AB, priority 2007, published 2009).

Where a name gives a salt, the structure may show the parent alone.

The target of the experiment is T1, Human α-thrombin (Homo sapiens, UniProt P00734).
T1 construct: Human α-thrombin; purchased Sigma Chemical Co. or Hematologic Technologies
The experiment in a line: Test A: Determination of Thrombin Inhibition with a Chromogenic, Robotic Assay. The experiment is classed as biochemical. To be noted: chromogenic substrate S-2366 0.30 mmol/L, α-thrombin 0.020 NIHU/mL, 40 minutes incubation at 37° C. On the procedure:
Determination of Thrombin Inhibition with a Chromogenic, Robotic Assay
The thrombin inhibitor potency is measured with a chromogenic substrate method, in a Plato 3300 robotic microplate processor (Rosys AG, CH-8634 Hombrechtikon, Switzerland), using 96-well, half volume microtitre plates (Costar, Cambridge, Mass., USA; Cat No 3690). Stock solutions of test substance in DMSO (72 μL), 0.1-1 mmol/L, are diluted serially 1:3 (24+48 μL) with DMSO to obtain ten different concentrations, which are analysed as samples in the assay. 2 μL of test sample is diluted with 124 μL assay buffer, 12 μL of chromogenic substrate solution (S-2366, Chromogenix, Mölndal, Sweden) in assay buffer and finally 12 μL of α-thrombin solution (Human α-thrombin, Sigma Chemical Co. or Hematologic Technologies) in assay buffer, are added, and the samples mixed. The final assay concentrations are: test substance 0.00068-133 μmol/L, S-2366 0.30 mmol/L, α-thrombin 0.020 NIHU/mL. The linear absorbance increment during 40 minutes incubation at 37° C. is used for calculation of percentage inhibition for the test samples, as compared to blanks without inhibitor.
In the case of `CC(C)(C1CC1)C(O)C(=O)N1[C@@H]2C[C@@H]2C[C@H]1C(=O)NCc1cc(Cl)ccc1-n1cnnn1` (stereo partly drawn) [Example 60, (1R,3S,5R)-2-(3-Cyclopropyl-2-hydroxy-3-methyl-butyryl)-2-aza-bicyclo[3.1.0]hexane-3-carboxylic acid 5-chloro-2-tetrazol-1-yl-benzylamide], 14 nM corresponded to half-maximal inhibition (IC50).

Consider `CC(C)(C1CC1)C(O)C(=O)N1C[C@H]2C[C@H]2[C@H]1C(=O)NCc1cc(Cl)ccc1-n1cnnn1` (stereo partly drawn) [Example 61, (1R,2S,5S)-3-(3-Cyclopropyl-2-hydroxy-3-methyl-butyryl)-3-aza-bicyclo[3.1.0]hexane-2-carboxylic acid 5-chloro-2-tetrazol-1-yl-benzylamide], for which 15 nM corresponded to half-maximal inhibition (IC50).

For `CC(C)(C1CC1)C(O)C(=O)N1C[C@@H]2C[C@@H]2[C@H]1C(=O)NCc1cc(Cl)ccc1-n1cnnn1` (stereo partly drawn) [Example 62, (1S,2S,5R)-3-(3-Cyclopropyl-2-hydroxy-3-methyl-butyryl)-3-aza-bicyclo[3.1.0]hexane-2-carboxylic acid 5-chloro-2-tetrazol-1-yl-benzylamide], the IC50 (commonly the point on the concentration scale where inhibition reaches its midpoint) turned out to be 2 nM.

Compound `O=C([C@H](O)CCc1ccccc1)N1CC2CC1(C(=O)NCc1cc(Cl)ccc1-n1cnnn1)C2` [Example 65, 2-((R)-2-Hydroxy-4-phenyl-butyryl)-2-aza-bicyclo[2.1.1]hexane-1-carboxylic acid 5-chloro-2-tetrazol-1-yl-benzylamide] showed an IC50 of 170 nM.

Take `CC(C)(C)OC[C@@H](O)C(=O)N1CC2CC1(C(=O)NCc1cc(Cl)ccc1-n1cnnn1)C2` [Example 66, 2-((R)-3-tert-Butoxy-2-hydroxy-propionyl)-2-aza-bicyclo[2.1.1]hexane-1-carboxylic acid 5-chloro-2-tetrazol-1-yl-benzylamide]: inhibition was half-maximal at 67 nM (IC50).

In turn, `O=C([C@H](O)C1CCCCC1)N1CC2CC1(C(=O)NCc1cc(Cl)ccc1-n1cnnn1)C2` [Example 67, 2-((R)-2-Cyclohexyl-2-hydroxy-acetyl)-2-aza-bicyclo[2.1.1]hexane-1-carboxylic acid 5-chloro-2-tetrazol-1-yl-benzylamide] displayed an IC50 of 85 nM.

`N[C@H](CC1CCCCC1)C(=O)N1CC2CC1(C(=O)NCc1cc(Cl)ccc1-n1cnnn1)C2` [Example 68, 2-((R)-2-Amino-3-cyclohexyl-propionyl)-2-aza-bicyclo[2.1.1]hexane-1-carboxylic acid 5-chloro-2-tetrazol-1-yl-benzylamide hydrochloride]: the IC50 amounted to 4 nM.

For `O=C(NCc1cc(Cl)ccc1-n1cncn1)[C@@H]1C[C@@H]2C[C@@H]2N1C(=O)C(O)Cn1cncn1` (stereo partly drawn) [Example 69, (1S,3S,5S)-2-(2-Hydroxy-3-1,2,4-triazol-1-yl-propionyl)-2-aza-bicyclo[3.1.0]hexane-3-carboxylic acid 5-chloro-2-1,2,4-triazol-1-yl-benzylamide], the IC50 was 780 nM.

`O=C(NCc1cc(F)ccc1-n1cnnn1)[C@@H]1C[C@@H]2C[C@@H]2N1C(=O)[C@H](O)c1cccc(Cl)c1` [Example 70, (1S,3S,5S)-2-[(R)-2-(3-Chloro-phenyl)-2-hydroxy-acetyl]-2-aza-bicyclo[3.1.0]hexane-3-carboxylic acid 5-fluoro-2-tetrazol-1-yl-benzylamide] returned an IC50 of 36 nM.

`N[C@@H](C(=O)N1[C@H](C(=O)NCc2cc(Cl)ccc2-n2cnnn2)C[C@@H]2C[C@@H]21)c1cccc(Cl)c1` [Example 71, (1S,3S,5S)-2-[(R)-2-Amino-2-(3-chloro-phenyl)-acetyl]-2-aza-bicyclo[3.1.0]hexane-3-carboxylic acid 5-chloro-2-tetrazol-1-yl-benzylamide] came in with an IC50 of 5 nM.

As to `NC(C(=O)N1[C@H](C(=O)NCc2cc(Cl)ccc2-n2cnnn2)C[C@@H]2C[C@@H]21)C1CCS(=O)(=O)CC1` (stereo partly drawn) [Example 72, (1S,3S,5S)-2-[2-Amino-2-(1,1-dioxo-hexahydro-1λ^6-thiopyran-4-yl)-acetyl]-2-aza-bicyclo[3.1.0]hexane-3-carboxylic acid 5-chloro-2-tetrazol-1-yl-benzylamide], the half-maximal inhibitory concentration (IC50) was 240 nM.
